This is an account of results in patent US20110201679A1, “Use of Tocotrienols for Elevating IKBKAP Gene Expression and Treating Neurodegenerative Diseases or Disorders” (priority 2004, published 2011).

Format in all cases: cell-based, human
The test system of test [1] is IKAP transcript. Nature of the test: Real-time RT-PCR analysis of IKAP RNA in FD-derived and normal fibroblast cells. Conditions: for effect on cellular levels of IKAP transcripts: 48 h, 25 and 2.5 μg/ml. The protocol:
In order to identify agents that could modulate the level of the wild type IKAP transcript produced in FD-derived cells, either by increasing transcription or modulating splicing, FD-derived fibroblast cells (GM00850) were treated with a variety of biological agents. RNA was isolated from the treated cells and was subjected to real-time RT-PCR analysis using primers specific for the wild-type IKAP transcript. More specifically, FD-derived fibroblast cells, seeded in 96-well plates at a concentration of 4000 cells/well for at least one day prior to treatment, were treated in triplicate for approximately 48 h unless noted otherwise. After treatment, the cells were washed once with PBS and then lysed in 50 μl of Cell-to-cDNA lysis buffer (Ambion) at 75° C. for 12 min. After one freeze-thaw cycle, 4 μl of lysate was used in 20 μl RT-PCRs. The Quantitect SYBR Green RT-PCR Kit (Qiagen) was used for real-time RT-PCR analysis of the relative quantities of the exon 20-containing transcript (wild-type), the exon 20-lacking transcript (mutant), as well as an exon 34-35-containing transcript that is unaffected by the FD-causing mutation (total). An ABI PRISM 7000 Sequence Detection System (Applied Biosystems), programmed as follows, was used to perform the real-time RT-PCR and analysis: 50° C. for 30 min and 95° C. for 15 min for one cycle, followed by 40 cycles of 94° C. for 15 s, 57-60° C. for 30 s, and 72° C. for 30 s. To present relative amounts of PCR product obtained, results were expressed as changes in the threshold cycle (ΔCT) compared to untreated cells. The threshold cycle refers to the PCR cycle at which the fluorescence of the PCR is increased to a calculated level above background. A change of 1.0 in CT, assuming 100% PCR efficiency, would reflect a twofold change in the starting amount of the RNA template that was amplified.
To control for the amount of RNA present in the samples, RT-PCR amplification of ribosomal 18S RNA was performed on all cell lysates. […] For this analysis, TaqMan Ribosomal RNA Control Reagents were used with the TaqMan EZ RT-PCR Kit (Applied Biosystems) as per the manufacturer's protocol.
To characterize the kinetics of the δ-tocotrienol-mediated accumulation of the IKAP transcript, FD-derived (GM00850 and GM04663) and normal (GM02912) fibroblast cells were exposed to 12.5 μg/ml of δ-tocotrienol for periods up to 48 h and the amount of the IKAP-encoding transcripts was determined by real-time RT-PCR, as described above.
To evaluate the IKAP mRNA-inducing ability of other molecules in the vitamin E family that are related to […], GM00850, GM04663, and GM02912 cells were incubated in the absence or presence of 25 and 2.5 μg/ml of either α, β, γ, or δ tocopherols or tocotrienols.
As described above, α, β, γ or δ tocopherol alone had no impact on IKAP mRNA levels when FD-derived or normal fibroblasts were treated for 48 hr. To determine if α-tocopherol in combination with tocotrienols would have an impact on IKAP mRNA levels, FD-derived GM00850 and GM04663 fibroblasts were treated for 48 hr with either 25 or 12.5 μg/mL of a mixture of α, β, γ and δ tocotrienols alone or in combination with 50 μg/mL of α-tocopherol.

Test [2] concerns IKBKAP gene transcription. Nature of the test: Nuclear run-on transcription assay in GM04663 cells. Conditions: 48 h, 12.5 μg/ml, versus untreated cells. The protocol: The δ-tocotrienol-mediated accumulation of the IKAP-encoding transcripts was either the result of an elevation in the level of gene transcription or the stabilization of this RNA. To distinguish between these possibilities, nuclear run-on transcription assays were performed on cells incubated in either the presence or absence of δ-tocotrienol. Isolation of nuclei and transcription in the presence of [α-^32P]UTP (Perkin Elmer Life Sciences) were performed essentially as described by B. Y. Rubin (J. Biol. Chem. 266: 24245-24248 (1991)). Briefly, confluent monolayers of GM04663 cells in 175 cm^2 flasks were incubated for 48 h in the presence or absence of 12.5 μg/ml δ-tocotrienol. The cells were then lysed by Dounce homogenization and the resultant nuclei were incubated with 250 μCi [α-^32P]UTP. The radiolabeled RNA was treated with DNase, purified with Trizol LS reagent (Invitrogen), and then hybridized to 5 μg of plasmid containing either a full-length cDNA encoding IKAP or a cDNA encoding GAPDH that was immobilized on Nytran Super-Charge nylon membrane (Schleicher & Schuell) using a spot-blot apparatus. The amount of radiolabeled RNA bound was detected by autoradiography and then quantitated by densitometric scanning of the X-ray film.

The subject of test [3] is IKAP transcript. Nature of the test: Real-time RT-PCR analysis of wild-type IKAP RNA in LA1-55n cells. Conditions: LA1-55n neuroblastoma cells, 48 h, varying concentrations. The protocol:
FIG. 7. Real-time RT-PCR analysis of wild-type IKAP RNA in LA1-55n cells. cDNA was prepared from LA1-55n cells incubated for 48 h in the absence or presence of varying concentrations of δ-tocotrienol. The relative amounts of IKAP RNA present in these cells were determined by real-time RT-PCR. The results presented represent mean values obtained in three experiments, each done in triplicate.
The response of the neuroblastoma-derived LA1-55n cell line, which has characteristics of sympathetic neurons (J. L. Biedler, et al., “Human Neuroblastoma Cell Differentiation, in: D. Raghavan, et al., Principles and Practice of Genitourinary Oncology, Lippincott-Raven, pp. 1053-1061, (1997); D. L. Lazarova, et al., “A Neuronal-Specific RNA-Binding Protein, is a Putative Regulator of N-myc pre-mRNA Processing/Stability in Malignant Human Neuroblasts”, Oncogene 18: 2703-2710 (1999)), to treatment with […] was examined.

For test [4], the system named is full-length IKAP. Nature of the test: Western blot analysis of full-length IKAP in fibroblast cells. Conditions: 12.5 μg/ml. The protocol:
Western blot analysis was performed on cellular extracts prepared from δ-tocotrienol-treated FD-derived (GM00850 and GM04663) and normal (GM02912) fibroblast cells, using a monoclonal antibody generated against a peptide corresponding to exons 23-28 of IKAP that only recognize the full-length IKAP. Basically, cells treated for 48 h with 12.5 μg/ml of δ-tocotrienol were washed twice with PBS and lysed in 0.5 M Tris-HCl, pH 6.8, containing 1.4% SDS. Western blot analysis was performed essentially as described by B. Y. Rubin (Proc. Natl. Acad. Sci. USA 82: 6637-6641 (1985)). Essentially, equal amounts of protein fractionated on a 7% NuPAGE Tris-Acetate Gel (Invitrogen) were blotted onto nitrocellulose (Bio-Rad) and probed overnight with a monoclonal anti-body (BD Biosciences) directed against the carboxyl end (exons 23-28) of IKAP. The blot was then washed and probed with a goat anti-mouse antibody conjugated to alkaline phosphatase (Promega), followed by detection with Western Blue Substrate solution (Promega).

Where [5] appears, read: GM00850, GM04663 and GM02912 cells.

“Also recorded” adds a separate entry of the source.

Take `Cc1c(C)c2c(c(C)c1O)CC[C@@](C)(CCC[C@H](C)CCC[C@H](C)CCCC(C)C)O2` [α-tocopherol, α-Tocopherol]: the “effect on cellular levels of IKAP transcripts” value (“effect on cellular levels” for short) in test [1] (setting [5]) is reported as “no impact; also recorded: no effect”. Moreover, the “enhancement of tocotrienol-induced increase in IKAP mRNA” value in test [1] (GM00850 and GM04663, 48 hr, 50 μg/mL α-tocopherol with 25 or 12.5 μg/mL mixture of α, β, γ and δ tocotrienols, versus tocotrienol-only treated cells) is at most 40%. For the same compound, in test [1] (GM00850 and GM04663 fibroblasts, 48 hr, 50 μg/mL α-tocopherol alone), the “effect on IKAP mRNA levels, alone” value is recorded as “no effect”.
As for `CC(C)=CCC/C(C)=C/CC/C(C)=C/CC[C@]1(C)CCc2c(C)c(O)c(C)c(C)c2O1` [α-tocotrienol, α-Tocotrienol], in test [1] (setting [5]), the “effect on cellular levels” value is “as much as sixfold”.
In the case of `Cc1cc(O)c(C)c2c1O[C@](C)(CCC[C@H](C)CCC[C@H](C)CCCC(C)C)CC2` [β-tocopherol, β-Tocopherol], the “effect on cellular levels” value in test [1] (setting [5]) was “no impact; also recorded: no effect”.
Same read-out and setting: then `CC(C)=CCC/C(C)=C/CC/C(C)=C/CC[C@]1(C)CCc2c(C)c(O)cc(C)c2O1` [β-tocotrienol, β-Tocotrienol], with “as much as sixfold”; and `Cc1c(O)cc2c(c1C)O[C@](C)(CCC[C@H](C)CCC[C@H](C)CCCC(C)C)CC2` [γ-tocopherol, γ-Tocopherol], with “no impact; also recorded: no effect”.
On to `CC(C)=CCC/C(C)=C/CC/C(C)=C/CC[C@]1(C)CCc2cc(O)c(C)c(C)c2O1` [γ-tocotrienol, γ-Tocotrienol], for which the “effect on cellular levels” value in test [1] (setting [5]) is given as “as much as sixfold”.
In the case of `Cc1cc(O)cc2c1O[C@](C)(CCC[C@H](C)CCC[C@H](C)CCCC(C)C)CC2` [δ-tocopherol, δ-Tocopherol], in test [1] (setting [5]), the “effect on cellular levels” value is listed as “no impact; also recorded: no effect”.
For the compound `CC(C)=CCC/C(C)=C/CC/C(C)=C/CC[C@]1(C)CCc2cc(O)cc(C)c2O1` [δ-tocotrienol, δ-Tocotrienol], the “increase in IKBKAP gene transcription” value in test [2] is recorded as “approximately 3.5 fold”. Moreover, the “increase in IKAP transcript levels” value in test [3] is “almost a twofold increase”. In test [1] (FD-derived fibroblast GM00850, about 48 h, varying concentrations), the “level of wild-type IKAP transcript” value is recorded as “concentration-dependent elevation”. The “change in threshold cycle (ΔCT) relative to untreated cells” value in test [1] (GM00850, 48 h, highest concentration tested) amounted to 2.5. The “increase in levels of truncated and wild-type IKAP transcripts” value in test [1] (GM00850, 48 h, highest concentration tested, relative to untreated cells) was “as much as a sixfold increase”. In addition, the “levels of IKAP-encoding transcripts over time” value in test [1] (GM00850, GM04663 and GM02912 cells, 12.5 μg/ml, 24 h after start of treatment, versus untreated cells, accumulation continues through 48 h) is given as “significantly elevated levels”. Also, in test [1] (setting [5]), the “effect on cellular levels” value is reported as “as much as sixfold”. Further, the “increase in amount of full-length IKAP produced” value in test [4] (FD-derived fibroblasts GM00850 and GM04663, 48 h, on average) was “approximate two-fold increase”. For the same compound, in test [4] (treated FD-derived cells GM00850 and GM04663, 48 h, untreated FD cells 26-30%), the “IKAP level as percentage of the level present in untreated normal (GM02912) cells” value is 48-65%.
